Test results as given in the SangsterLogP compilation.

Assay: method code SF-HPLC, from DOI: 10.1002/qsar.200860138
Details: pH 3.0
`COc1ccc(C(=O)c2cccn2CC(=O)O)cc1` showed a logD of 1.65. For `O=C(O)Cn1cc(C(=O)c2ccccc2)c2ccccc21`, the logD was 2.57. In the case of `COc1ccc(C(=O)c2ccn(CC(=O)O)c2)cc1`, the logD is reported as 1.57. With `O=C(O)Cn1ccc(C(=O)c2ccc(C(F)(F)F)cc2)c1` the logD was 2. Compound `COc1ccc(C(=O)c2cc(C(=O)c3ccc(OC)cc3)n(CC(=O)O)c2)cc1` has a logD of 3.15. `O=C(O)Cc1ccc(C(=O)c2ccccc2)[nH]1` showed a logD of 1.87. In the case of `O=C(O)Cn1ccc(C(=O)c2ccc(Cl)cc2)c1`, the logD is reported as 1.95. `O=C(O)Cn1ccc(C(=O)c2ccc([N+](=O)[O-])cc2)c1` showed a logD of 0.93. With `Cc1ccc(C(=O)c2ccn(CC(=O)O)c2)cc1` the logD was 1.27. In the case of `O=C(O)Cn1ccc(C(=O)c2ccc3ccccc3c2)c1`, the logD is reported as 2.27. For `O=C(O)Cn1cc(C(=O)c2ccccc2)cc1C(=O)c1ccccc1`, the logD was 2.12. `O=C(O)Cn1ccc(-c2nc3ccccc3s2)c1` gave a logD of 2.22.
